Values after ≈ are worked out from the molar mass of the structure shown. Active and inactive are the calls of the source. The rule behind the calls is not given here.
Tests used:
Klebsiella pneumoniae [1] = test: Ratio of MIC for multidrug-resistant Klebsiella pneumoniae NCTC 13368-7-R1 measured after 10 passages to MIC for multidrug-resistant Klebsiella pneumoniae NCTC 13368-7-R1 measured after 10 passages in presence of membrane permeabilizer PMBN; type: functional
Klebsiella pneumoniae [2] = test: Ratio of MIC for multidrug-resistant Klebsiella pneumoniae NCTC 13368-7-R2 measured after 10 passages to MIC for multidrug-resistant Klebsiella pneumoniae NCTC 13368-7-R2 measured after 10 passages in presence of efflux pump inhibitor PAbetaN; type: functional
Klebsiella pneumoniae [3] = test: Antimicrobial activity against Klebsiella pneumoniae M6 by microdilution broth method; type: functional
Klebsiella pneumoniae [4] = test: Antimicrobial activity against multidrug-resistant Klebsiella pneumoniae NCTC 13368 by microdilution broth method; type: functional
Pseudomonas aeruginosa [5] = test: Antimicrobial activity against multidrug-resistant Pseudomonas aeruginosa NCTC 13437 by microdilution broth method; type: functional
Acinetobacter baumannii [6] = test: Antimicrobial activity against multidrug-resistant Acinetobacter baumannii NCTC 13424 by microdilution broth method; type: functional
Acinetobacter baumannii [7] = test: Antimicrobial activity against multidrug-resistant Acinetobacter baumannii NCTC 13302 by microdilution broth method; type: functional
Acinetobacter baumannii [8] = test: Antimicrobial activity against multidrug-resistant Acinetobacter baumannii UKA2 by microdilution broth method; type: functional
Acinetobacter baumannii [9] = test: Antimicrobial activity against multidrug-resistant Acinetobacter baumannii UKA7 by microdilution broth method; type: functional
Acinetobacter baumannii [10] = test: Antimicrobial activity against multidrug-resistant Acinetobacter baumannii W1 by microdilution broth method; type: functional
Klebsiella pneumoniae [11] = test: Bactericidal activity against multidrug-resistant Klebsiella pneumoniae NCTC 13438 assessed as reduction in viable bacterial count at 4 times MIC measured up to 24 hrs by Miles-Misra dilution method based time-kill assay; type: functional, organism-based
Acinetobacter baumannii [12] = test: Bactericidal activity against Acinetobacter baumannii AYE assessed as reduction in viable bacterial count at 4 times MIC measured up to 24 hrs by Miles-Misra dilution method based time-kill assay; type: functional, organism-based
Acinetobacter baumannii [13] = test: Bactericidal activity against Acinetobacter baumannii NCTC 13424 assessed as reduction in viable bacterial count at 4 times MIC measured up to 24 hrs by Miles-Misra dilution method based time-kill assay; type: functional, organism-based
Klebsiella pneumoniae [14] = test: Bactericidal activity against multidrug-resistant Klebsiella pneumoniae NCTC 13368 assessed as reduction in viable bacterial count at 4 times MIC measured after 24 hrs by Miles-Misra dilution method based time-kill assay; type: functional, organism-based
Klebsiella pneumoniae [15] = test: Antibacterial activity against multidrug-resistant Klebsiella pneumoniae NCTC 13368-7-R2 measured after 10 passages by microdilution broth method; type: functional
Klebsiella pneumoniae [16] = test: Antibacterial activity against multidrug-resistant Klebsiella pneumoniae NCTC 13368-7-R1 measured after 10 passages in presence of efflux pump inhibitor CCCP by microdilution broth method; type: functional
Klebsiella pneumoniae [17] = test: Antibacterial activity against multidrug-resistant Klebsiella pneumoniae NCTC 13368-7-R2 measured after 10 passages in presence of efflux pump inhibitor CCCP by microdilution broth method; type: functional
Klebsiella pneumoniae [18] = test: Antimicrobial activity against multidrug-resistant Klebsiella pneumoniae NCTC 13438 in presence of efflux pump inhibitor CCCP by microdilution broth method; type: functional
Acinetobacter baumannii [19] = test: Antimicrobial activity against multidrug-resistant Acinetobacter baumannii AYE in presence of efflux pump inhibitor CCCP by microdilution broth method; type: functional
Klebsiella pneumoniae [20] = test: Antibacterial activity against multidrug-resistant Klebsiella pneumoniae NCTC 13368-7-R1 measured after 10 passages in presence of efflux pump inhibitor PAbetaN by microdilution broth method; type: functional
Klebsiella pneumoniae [21] = test: Antibacterial activity against multidrug-resistant Klebsiella pneumoniae NCTC 13368-7-R2 measured after 10 passages in presence of efflux pump inhibitor PAbetaN by microdilution broth method; type: functional
Klebsiella pneumoniae [22] = test: Antimicrobial activity against multidrug-resistant Klebsiella pneumoniae NCTC 13368 in presence of membrane permeabilizer PMBN by microdilution broth method; type: functional
Klebsiella pneumoniae [23] = test: Antibacterial activity against multidrug-resistant Klebsiella pneumoniae NCTC 13368-7-R1 measured after 10 passages in presence of membrane permeabilizer PMBN by microdilution broth method; type: functional
Klebsiella pneumoniae [24] = test: Antibacterial activity against multidrug-resistant Klebsiella pneumoniae NCTC 13368-7-R2 measured after 10 passages in presence of membrane permeabilizer PMBN by microdilution broth method; type: functional
Klebsiella pneumoniae [25] = test: Antimicrobial activity against multidrug-resistant Klebsiella pneumoniae 16 in presence of membrane permeabilizer PMBN by microdilution broth method; type: functional
Pseudomonas aeruginosa [26] = test: Antimicrobial activity against multidrug-resistant Pseudomonas aeruginosa NCTC 13437 in presence of membrane permeabilizer PMBN by microdilution broth method; type: functional
Klebsiella pneumoniae [27] = test: Ratio of MIC for multidrug-resistant Klebsiella pneumoniae NCTC 13368-7-R2 measured after 10 passages to MIC for multidrug-resistant Klebsiella pneumoniae NCTC 13368-7-R2 measured after 10 passages in presence of membrane permeabilizer PMBN; type: functional
Klebsiella pneumoniae [28] = test: Ratio of MIC for multidrug-resistant Klebsiella pneumoniae NCTC 13368 to MIC for multidrug-resistant Klebsiella pneumoniae NCTC 13368 in presence of membrane permeabilizer PMBN; type: functional
[29] = Solubility of the compound at 32 mg/L; type: physicochemical
Acinetobacter baumannii [30] = test: Ratio of MIC for multidrug-resistant Acinetobacter baumannii AYE to MIC for multidrug-resistant Acinetobacter baumannii AYE in presence of efflux pump inhibitor PAbetaN; type: functional
Acinetobacter baumannii [31] = test: Ratio of MIC for multidrug-resistant Acinetobacter baumannii AYE to MIC for multidrug-resistant Acinetobacter baumannii AYE in presence of efflux pump inhibitor CCCP; type: functional
[32] = Ratio of MIC for Pseudomonas aeruginosa PAO1 to MIC for Pseudomonas aeruginosa harboring MexCD mutant; type: functional
Staphylococcus aureus = test: Antibacterial activity against methicillin sensitive Staphylococcus aureus NCTC 6571 by microdilution broth method; type: functional
Klebsiella pneumoniae [33] = test: Bactericidal activity against multidrug-resistant Klebsiella pneumoniae NCTC 13368 assessed as viable bacterial count at 4 times MIC measured after 4 to 24 hrs by Miles-Misra dilution method based time-kill assay; type: functional, organism-based
Klebsiella pneumoniae [34] = test: Bactericidal activity against multidrug-resistant Klebsiella pneumoniae 16 assessed as viable bacterial count at 4 times MIC measured after 4 to 24 hrs by Miles-Misra dilution method based time-kill assay; type: functional, organism-based
Klebsiella pneumoniae [35] = test: Bactericidal activity against multidrug-resistant Klebsiella pneumoniae NCTC 13438 assessed as viable bacterial count at 4 times MIC measured after 4 to 24 hrs by Miles-Misra dilution method based time-kill assay; type: functional, organism-based
Acinetobacter baumannii [36] = test: Bactericidal activity against Acinetobacter baumannii AYE assessed as reduction in viable bacterial count at 4 times MIC measured after 24 hrs by Miles-Misra dilution method based time-kill assay; type: functional, organism-based
Acinetobacter baumannii [37] = test: Antimicrobial activity against Acinetobacter baumannii ATCC 17978 in presence of efflux pump inhibitor CCCP by microdilution broth method; type: functional
Escherichia coli = test: Antimicrobial activity against multidrug-resistant Escherichia coli NCTC 12923 assessed as mutation frequency at 4 times MIC measured after 48 hrs; type: functional
Acinetobacter baumannii [38] = test: Antimicrobial activity against Acinetobacter baumannii ATCC 17978 assessed as mutation frequency at 4 times MIC measured after 48 hrs; type: functional
Klebsiella pneumoniae [39] = test: Antimicrobial activity against Klebsiella pneumoniae M6 assessed as mutation frequency at 4 times MIC measured after 48 hrs; type: functional

SMILES: COc1cc2c(cc1OCCCC(=O)Nc1cc(C(=O)Nc3ccc4oc(C(=O)N5CCSCC5)cc4c3)n(C)c1)N=C[C@@H]1CCCN1C2=O
- Ratio (Klebsiella pneumoniae [1]): 4
- Ratio (Klebsiella pneumoniae [2]): 4
- MIC (Klebsiella pneumoniae [3]): 1 µg/mL (≈ 1.43 µM)
- MIC (Klebsiella pneumoniae [4]): 32 µg/mL (≈ 45.8 µM)
- MIC (Pseudomonas aeruginosa [5]): > 32 µg/mL
- MIC (Acinetobacter baumannii [6]): 1 to 2 µg/mL (≈ 1.43 to 2.86 µM)
- MIC (Acinetobacter baumannii [7]): 4 µg/mL (≈ 5.72 µM)
- MIC (Acinetobacter baumannii [8]): 4 µg/mL (≈ 5.72 µM)
- MIC (Acinetobacter baumannii [9]): 4 µg/mL (≈ 5.72 µM)
- MIC (Acinetobacter baumannii [10]): 4 µg/mL (≈ 5.72 µM)
- Activity (Klebsiella pneumoniae [11]): Active
- Activity (Acinetobacter baumannii [12]): Active
- Activity (Acinetobacter baumannii [13]): Active
- Activity (Klebsiella pneumoniae [14]): inactive
- MIC (Klebsiella pneumoniae [15]): > 128 µg/mL
- MIC (Klebsiella pneumoniae [16]): 128 µg/mL
- MIC (Klebsiella pneumoniae [17]): > 128 µg/mL
- MIC (Klebsiella pneumoniae [18]): 4 µg/mL
- MIC (Acinetobacter baumannii [19]): 4 µg/mL
- MIC (Klebsiella pneumoniae [20]): 32 µg/mL
- MIC (Klebsiella pneumoniae [21]): 128 µg/mL
- MIC (Klebsiella pneumoniae [22]): 8 µg/mL
- MIC (Klebsiella pneumoniae [23]): 8 µg/mL
- MIC (Klebsiella pneumoniae [24]): 64 µg/mL
- MIC (Klebsiella pneumoniae [25]): 0.5 µg/mL
- MIC (Pseudomonas aeruginosa [26]): 2 to 32 µg/mL
- Ratio (Klebsiella pneumoniae [27]): 4
- Ratio (Klebsiella pneumoniae [28]): 4
- solubility [29]: Insoluble

SMILES: COc1cc2c(cc1OCCCC(=O)Nc1cc(C(=O)Nc3ccc4sc(C(=O)N(C)C)cc4c3)n(C)c1)N=C[C@@H]1CCCN1C2=O
- Ratio (Acinetobacter baumannii [30]): 4
- Ratio (Acinetobacter baumannii [31]): 4
- Ratio [32]: > 4
- MIC (Staphylococcus aureus): 0.03 µg/mL (≈ 0.0457 µM)
- Activity (Klebsiella pneumoniae [33]): Below limit of detection
- Activity (Klebsiella pneumoniae [34]): Below limit of detection
- Activity (Klebsiella pneumoniae [35]): Below limit of detection
- Activity (Acinetobacter baumannii [36]): inactive
- MIC (Acinetobacter baumannii [37]): 0.25 µg/mL
- Activity (Escherichia coli): <4.3 ×10⁻⁸ No_unit
- Activity (Acinetobacter baumannii [38]): <1.5 ×10⁻⁸ No_unit
- Activity (Klebsiella pneumoniae [39]): 1 ×10⁻⁶ No_unit

From ChEMBL document CHEMBL4610120, “New Broad-Spectrum Antibiotics Containing a Pyrrolobenzodiazepine Ring with Activity against Multidrug-Resistant Gram-Negative Bacteria” (J Med Chem, 2020)
